The structures appear in SMILES notation.

The assay deals with HMLE_sh_eGFP viability, CellTiter-Glo luminescence, 72 h. As to the kind of experiment: viability loss of HMLE_sh_eGFP cells – cell-based, luminescence, counter-screen for HMLE_sh_ECad selective toxicity project, dose response (AID 463074).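 Note: counterscreen control line to flag general toxicity for the HMLE_sh_ECad screen; potency for loss of viability as luminescence drops below DMSO wells.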
Regarding `COc1ccc(-c2cn(CCc3c[nH]c4ccccc34)nn2)cc1`, the AC50 was 2.69 µM.

As for `CCC1CSC(Nc2ccc(C(=O)/C=C/c3ccc(Br)cc3)cc2)=N1` (stereo not drawn), the AC50 was 5.68 µM.

Consider `COc1ccc(C2NCCc3c2[nH]c2ccccc32)cc1CSc1nc2ccccc2s1` (stereo not drawn), for which the AC50 is 4.98 µM.

Regarding `CCC(C)n1c(-c2cccs2)nc2nc3ccccc3nc21` (stereo not drawn), the AC50 is 15.5 µM.

Take `O=C(c1ccc(Cl)cc1)c1c[nH]c(C(=O)NNc2ccccc2)c1`: the AC50 is 1.85 µM.

On to `CC1(C)CC[C@]2(CO)CC[C@]3(C)C(=CCC4[C@@]5(C)CC[C@H](O)[C@@](C)(CO)C5CC[C@]43C)[C@@H]2C1` (stereo partly drawn), for which the AC50 was 3.97 µM.

For `CCCCCCSc1ccc(-c2nc3ccccn3c2NCCCC)cc1`, the half-maximal activity concentration (AC50) is 6.98 µM.

`COc1cccc(/C=N/NC(=O)c2ccc(-c3ccccc3)cc2)c1O`: the AC50 is 3.33 µM.

For the molecule `Cc1cccc(N/N=C(\C(N)=O)C2=NC(C)(C)Cc3ccccc32)c1`, the AC50 was 10.9 µM.

Turning to `O=C(COc1ccccc1-c1ccccc1)N/N=C/c1ccc2ccccc2c1`, the AC50 is 3.67 µM.

As for `O=C(NCc1cccnc1)c1ccc(NC(=O)c2ccc(Br)cc2)cc1`, the AC50 is 3.11 µM.

As for `COc1ccc(C)cc1NC(=O)CSc1nnc(COc2ccc(Cl)cc2)n1Cc1ccco1`, the AC50 is 8.28 µM.

With `COC(=O)C1=C(C)N(Cc2ccccc2)C(=NCc2cccc(Cl)c2)N[C@H]1c1cccc(F)c1`, the AC50 was 3.62 µM.

Regarding `CCOC(=O)c1c(C)oc2c(F)c(F)c(F)c(F)c2c1=O`, the AC50 was 2.02 µM.

Take `FC(F)(F)c1cccc(Nc2ncnc3ccccc23)c1`: the AC50 was 1.75 µM.

On to `C=CCn1c(O)c(C2=c3ccccc3=NC2=O)c2ccccc21`, for which the AC50 was 7.4 µM.

As for `N#CC1=C(SCC(=O)c2ccc(Cl)cc2)NC2=C(C(=O)CCC2)C1c1ccco1` (stereo not drawn), the AC50 was 3.57 µM.

With `S=c1nc[nH]c2nc[nH]c12`, the AC50 is 1.52 µM.

`Oc1ccccc1C1=NN(c2ccccc2)C(c2ccccc2)C1` (stereo not drawn): the AC50 was 1.63 µM.

On to `COc1ccc(-n2nc3c(N4CCC(C(=O)NCCc5ccccc5C)CC4)nnc(C)c3c2C)cc1`, for which the AC50 was 4.85 µM.

On to `COc1ccc(Oc2c(Cl)cnn(-c3ccc(Cl)c(Cl)c3)c2=O)cc1`, for which the AC50 is 3.44 µM.

On to `Cn1c(-c2ccsc2)c(-c2cccs2)c2cc(Br)ccc21`, for which the AC50 is 5.92 µM.

On to `CC(C)(C)OC(=O)NCc1ccc(NC(=O)c2nc[nH]c2C(=O)NCCCCNC(=O)c2[nH]cnc2C(=O)Nc2ccc(CNC(=O)OC(C)(C)C)cc2)cc1`, for which the AC50 was 2.15 µM.

Take `COc1ccc(/C=C/C(=O)Nc2ccc(C34CC5CC(CC(O)(C5)C3)C4)cc2)cc1OC`: the AC50 was 0.631 µM.

Turning to `CCN1C(=O)/C(=C\c2ccncc2)SC1=Nc1ccc(C)c(C)c1`, the AC50 was 6.82 µM.

Take `COC(=O)c1ccc(/C=C/c2c(-c3ccc(OC)cc3)oc3ccccc23)cc1`: the AC50 is 5.95 µM.

With `Cc1ccc(/C=C\c2nccc3c2[nH]c2ccccc23)cc1`, the AC50 is 13.2 µM.

As for `O=C(/C=C\c1ccccc1)NCC(=O)N/N=C/c1ccc(O)cc1O`, the AC50 was 12 µM.

With `Cc1cc(N2CCN(C)CC2)nc2ccc(NC(=S)N3CCN(c4ccc(F)cc4)CC3)cc12`, the AC50 was 5.94 µM.

For `Cc1ccsc1/C=N/NC(=O)c1cc(-c2ccncc2)nc2ccccc12`, the AC50 was 0.257 µM.

For `COc1cc(CNc2ccc(CNc3ncn[nH]3)cc2)ccc1OCc1ccccc1`, the AC50 is 0.708 µM.

As for `CCCCNC(=S)N(C)/N=C/c1ccc2c(c1)OCO2`, the AC50 was 16.3 µM.

Take `CC1CCCC(NC(=S)Nc2ccc(SC(F)F)cc2)C1C` (stereo not drawn): the AC50 is 6.34 µM.

`CCCCn1c(=O)c(C(=O)NCc2ccc(Cl)cc2)c(O)c2ccccc21`: the AC50 is 7.8 µM.

Take `C[C@]12CC[C@H]3C(CCC4(O)CC(O)CC[C@]34C=O)C1=CC[C@H]2c1ccc(=O)oc1` (stereo partly drawn): the AC50 was 3.6 µM.

As to `CCCCc1ccc(/C(C)=N/Nc2cc(N3CCOCC3)nc(C)n2)cc1`, the AC50 is 4.99 µM.

`Oc1ccc(CCNc2ncnc3ccc(Cl)cc23)cc1`: the AC50 is 7.91 µM.

`O=C(COc1cccc(C(F)(F)F)c1)N1CCN(c2ccc(O)cc2)CC1`: the AC50 was 4.98 µM.

For the origin of these results see PubChem BioAssay AID463074 (Broad Institute, 2010).
